Laboratory results from patent US20230312550A1, “N-(2-(4-CYANOTHIAZOLIDIN-3-YL)-2-OXOETHYL)-QUINOLINE-4-CARBOXAMIDES” (AstraZeneca AB, priority 2020, published 2023).
Converted amounts (≈) assume the structure as drawn.

What was measured:
[1] = Metabolic stability in rat hepatocytes (rHep); settings: n = 1 or geometric mean of n = 2-3
[2] = Caco-2 cell permeability; settings: human
Procedure: Caco-2 cell permeability was measured as described in Mol Pharm 2017, 14, 1601.

[3] = target: Prolyl endopeptidase, Prolyl Oligopeptidase (hPREP) (Homo sapiens (Human), UniProt P48147); test: hPrep inhibition assay; assay type: biochemical; settings: hPREP 0.6 nM, Z-Gly-Pro-amino-methylcoumarin 50 μM; read-out: PREP IC50
In short: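 Recombinant human PREP at 0.6 nM final with Z-Gly-Pro-AMC substrate at 50 μM final in Tris-HCl pH 7.5, NaCl, Triton X-100, glutathione; 15 min rt preincubation then 20 min rt reaction in dark. AMC fluorescence (ex 340/em 460 nm); IC50 from one-site dose-response fit of % inhibition.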

[4] = Kinetic solubility; settings: kinetic from dmso stock, Solubility, kinetic solubility; n = 1 or average of n = 2-3
Procedure: Kinetic solubility was measured as described in Comput Aided Mol Des 2015, 29, 795.

[5] = Metabolic stability in human liver microsomes (HLM); settings: human, HLM CLint, n = 1 or average of n = 2-3
Procedure: Metabolic stability in HLM was measured as described in J Comput Aided Mol Des 2015, 29, 795.

[6] = target: human Fibroblast activation protein alpha (hFAP) (Homo sapiens (Human), UniProt Q12884); test: hFAP inhibition assay (tight binders); assay type: biochemical; settings: Ala-Pro-AMC 20 μM, n = 1 or geometric mean n = 2-6; note: hFAP 2.4 pM
Procedure: The plates were read on a PHERAstar® reader with excitation 340 nm and emission 460 nm. Data were analyzed in Genedata Screener®. IC50 values were determined by plotting % inhibition versus log compound concentration and using a one site dose response model.

[7] = target: hFAP (M39-A757) (Homo sapiens (Human), UniProt Q12884); test: hFAP binding assay (surface plasmon resonance); settings: SPR, 20° C.; for hFAP Binding assay k(off) / hFAP Binding assay k(on): single cycle kinetics; for Kd: n = 1 or geometric mean n = 2-4
Procedure: Compounds were tested in a direct binding assay using 8K surface plasmon resonance biosensor (GE Healthcare) at 20° C. Immobilization of hFAP (M39-A757) on a CMD200M sensor chip (Xantec) was performed using standard amine coupling procedure in immobilization buffer (10 mM HEPES, 150 mM NaCl, 0.05% Tween20, pH 7.4). The surface was washed with 10 mM NaOH, 1M NaCl before being activated with EDC/NHS (GE Healthcare), followed by immobilization of hFAP (in 10 mM Acetate pH 5.0). Finally, the surface was deactivated by ethanolamine. Immobilization levels of hFAP were around 4000-6000 RU. The reference spot was treated as described, omitting the injection of hFAP. Compound concentration series were injected over the immobilized protein in increasing concentrations (2-500 nM) using single cycle kinetics in running buffer (20 mM TRIS, 150 mM NaCl, 0.05% Tween20, 1% DMSO, pH 7.4). Interaction models were fitted globally to the experimental traces, enabling determination of kon, koff and Kd.

[8] = target: FAP (Homo sapiens (Human), UniProt Q12884); test: hFAP inhibition assay; assay type: biochemical; settings: Ala-Pro-AMC 20 μM, n = 1 or geometric mean n = 2-3
In short: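 Human FAP (0.48 nM) in 100 mM Tris HCl, 100 mM NaCl, 0.05% Chaps, pH 7.4 was preincubated 15 min at rt in the dark with compounds (10-point, 3-fold series from 50 μM). Substrate was added from a 40 μM solution, then 30 min at rt. Fluorescence read at ex 340/em 460 nm; IC50 from one-site dose-response fit of % inhibition.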

[9] = target: FAP (Mus musculus (Mouse), UniProt P97321); test: FAP plasma inhibition assay, mouse plasma; assay type: biochemical; settings: mouse plasma diluted 1:67, Ala-Pro-AMC 75 μM
Procedure: This assay was adapted from the method described in Example 237 for detection of FAP target engagement enzyme activity in plasma. Plasma (anticoagulant K2EDTA) was used as the enzyme source: Human plasma (Pooled from AZ Biobank), Mouse plasma (AZ AST Biobank), and Cynomolgus plasma (BioIVT, #NHP00PLK2FNN, lot CYN222895). 384-Well black fluotrack PS plates (Greiner 781076) were used. 20 μL diluted plasma (Cynomolgus and Human plasma dilution 1:40, Mouse plasma dilution 1:67) in buffer (PBS, 0.1% BSA) was added to 0.6 μL compounds (in DMSO). Compounds were tested using 10 CR, 3 fold dilution series from 500 nM FAC. Two replicates for each assay point were run on the same plate. A fluorescence blank read was taken before substrate addition. […] Plates were incubated for 40 min at rt in the dark. […] IC50 values were determined by plotting % inhibition versus log compound concentration.

Chain of hFAP (M39-A757) (Q12884 39-757): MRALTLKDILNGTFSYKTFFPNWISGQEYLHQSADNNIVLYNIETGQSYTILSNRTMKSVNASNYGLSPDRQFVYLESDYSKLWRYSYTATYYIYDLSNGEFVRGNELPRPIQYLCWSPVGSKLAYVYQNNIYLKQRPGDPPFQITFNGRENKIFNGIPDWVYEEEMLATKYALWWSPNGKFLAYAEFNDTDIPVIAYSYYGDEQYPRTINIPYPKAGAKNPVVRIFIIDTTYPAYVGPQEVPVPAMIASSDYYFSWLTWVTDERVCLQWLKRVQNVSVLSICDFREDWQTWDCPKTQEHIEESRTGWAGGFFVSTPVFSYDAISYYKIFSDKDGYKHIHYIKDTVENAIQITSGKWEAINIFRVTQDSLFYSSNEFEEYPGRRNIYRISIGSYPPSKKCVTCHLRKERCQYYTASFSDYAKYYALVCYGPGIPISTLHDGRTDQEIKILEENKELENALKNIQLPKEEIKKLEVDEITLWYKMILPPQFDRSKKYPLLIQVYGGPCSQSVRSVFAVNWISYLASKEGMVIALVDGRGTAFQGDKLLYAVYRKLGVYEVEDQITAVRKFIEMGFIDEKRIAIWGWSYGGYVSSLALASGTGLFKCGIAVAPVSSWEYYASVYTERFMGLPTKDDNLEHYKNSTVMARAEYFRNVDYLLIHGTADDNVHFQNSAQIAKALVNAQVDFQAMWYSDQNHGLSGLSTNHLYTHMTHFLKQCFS
Chain of FAP (Homo sapiens (Human), UniProt Q12884) (Q12884 38-760): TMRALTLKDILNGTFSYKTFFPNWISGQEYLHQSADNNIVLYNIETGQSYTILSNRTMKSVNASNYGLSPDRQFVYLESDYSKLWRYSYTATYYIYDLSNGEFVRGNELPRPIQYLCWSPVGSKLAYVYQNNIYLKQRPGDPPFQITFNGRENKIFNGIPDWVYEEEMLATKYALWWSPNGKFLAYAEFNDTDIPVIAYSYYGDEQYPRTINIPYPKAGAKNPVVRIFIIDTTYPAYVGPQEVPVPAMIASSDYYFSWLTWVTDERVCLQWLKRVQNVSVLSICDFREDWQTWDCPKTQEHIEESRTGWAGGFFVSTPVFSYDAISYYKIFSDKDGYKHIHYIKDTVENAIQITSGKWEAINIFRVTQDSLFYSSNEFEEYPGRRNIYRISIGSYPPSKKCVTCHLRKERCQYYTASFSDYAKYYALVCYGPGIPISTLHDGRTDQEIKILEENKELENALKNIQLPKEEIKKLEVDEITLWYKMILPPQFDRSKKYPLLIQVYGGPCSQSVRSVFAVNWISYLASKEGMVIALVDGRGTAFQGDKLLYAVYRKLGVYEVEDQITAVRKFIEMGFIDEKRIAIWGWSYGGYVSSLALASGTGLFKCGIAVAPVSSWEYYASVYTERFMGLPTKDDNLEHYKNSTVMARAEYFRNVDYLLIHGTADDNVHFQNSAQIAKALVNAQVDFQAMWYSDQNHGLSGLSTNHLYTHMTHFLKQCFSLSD
Chain of human Fibroblast activation protein alpha (hFAP) (Q12884 38-760): as above
Chain of Prolyl endopeptidase, Prolyl Oligopeptidase (hPREP) (P48147 whole entry): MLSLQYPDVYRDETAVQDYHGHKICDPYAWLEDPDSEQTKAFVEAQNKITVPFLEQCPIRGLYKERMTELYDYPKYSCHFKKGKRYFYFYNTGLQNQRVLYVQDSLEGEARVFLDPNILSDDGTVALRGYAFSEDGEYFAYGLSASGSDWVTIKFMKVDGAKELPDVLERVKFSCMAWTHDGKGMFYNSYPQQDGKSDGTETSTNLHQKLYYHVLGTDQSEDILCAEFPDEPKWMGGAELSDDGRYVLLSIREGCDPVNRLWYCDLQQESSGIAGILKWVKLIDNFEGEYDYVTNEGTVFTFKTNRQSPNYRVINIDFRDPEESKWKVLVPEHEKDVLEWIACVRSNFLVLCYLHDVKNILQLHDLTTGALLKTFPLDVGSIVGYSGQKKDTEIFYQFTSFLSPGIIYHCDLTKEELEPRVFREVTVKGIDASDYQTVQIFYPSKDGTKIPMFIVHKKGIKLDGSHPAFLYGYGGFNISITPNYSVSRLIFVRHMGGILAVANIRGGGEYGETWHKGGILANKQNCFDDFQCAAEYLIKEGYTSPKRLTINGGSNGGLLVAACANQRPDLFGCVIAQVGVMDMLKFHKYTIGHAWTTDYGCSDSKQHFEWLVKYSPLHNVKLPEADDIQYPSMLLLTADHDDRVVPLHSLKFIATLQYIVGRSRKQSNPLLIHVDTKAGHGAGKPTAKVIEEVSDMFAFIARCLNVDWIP
Chain of FAP (Mus musculus (Mouse), UniProt P97321) (P97321 24-761): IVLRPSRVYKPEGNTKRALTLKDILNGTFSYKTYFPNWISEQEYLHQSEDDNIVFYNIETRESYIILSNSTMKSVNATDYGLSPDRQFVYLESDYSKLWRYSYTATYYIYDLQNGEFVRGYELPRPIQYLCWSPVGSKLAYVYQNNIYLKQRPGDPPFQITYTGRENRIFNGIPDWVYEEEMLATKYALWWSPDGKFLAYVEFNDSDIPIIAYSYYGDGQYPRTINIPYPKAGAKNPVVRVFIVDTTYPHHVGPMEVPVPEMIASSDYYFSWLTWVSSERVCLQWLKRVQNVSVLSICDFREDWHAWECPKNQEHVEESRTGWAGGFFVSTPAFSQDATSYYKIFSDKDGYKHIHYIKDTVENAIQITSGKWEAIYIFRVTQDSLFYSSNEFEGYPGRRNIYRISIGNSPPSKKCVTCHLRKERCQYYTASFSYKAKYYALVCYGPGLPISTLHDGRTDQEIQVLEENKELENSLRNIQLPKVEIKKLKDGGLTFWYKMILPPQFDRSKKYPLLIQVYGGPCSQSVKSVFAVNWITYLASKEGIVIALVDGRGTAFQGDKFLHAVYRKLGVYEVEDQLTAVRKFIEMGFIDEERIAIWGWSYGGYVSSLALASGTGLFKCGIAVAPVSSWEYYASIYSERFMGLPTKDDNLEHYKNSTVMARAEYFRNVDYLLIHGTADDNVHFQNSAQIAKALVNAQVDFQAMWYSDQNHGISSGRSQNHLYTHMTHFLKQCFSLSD

Compound	rHep CLint [1] [μL/min/1E6]	Papp [2] [×10⁻⁶ cm/s]	IC50 [3] [nM]	solubility [4] [µM]	microsomal CLint [5] [µL/min/mg]	IC50 [6] [nM]	hFAP Binding assay k(off) [7] [s⁻¹]	hFAP Binding assay k(on) [7] [M⁻¹ s⁻¹]	Kd [7] [nM]	IC50 ([8]; hFAP 0.24 nM) [nM]	IC50 [9] [nM]	Papp A→B [2] [×10⁻⁶ cm/s]	Papp B→A [2] [×10⁻⁶ cm/s]	efflux ratio [2]	IC50 ([8]; hFAP […]) [nM]
Cc1cc(N2CCOCC2)cc2c(C(=O)NCC(=O)N3CSC[C@H]3C#N)ccnc12 [Example 9]											0.6				
N#C[C@@H]1CSCN1C(=O)CNC(=O)c1ccnc2ccc(-c3ccnc(F)c3)cc12 [Example 124, (R)—N-(2-(4-Cyanothiazolidin-3-yl)-2-oxoethyl)-6-(2-fluoropyridin-4-yl)quinoline-4-carboxamide]	14		220	38 (≈ 16 µg/mL)	12	0.055	0.00028	3000000	0.094			0.65	39	59	0.24
Cc1ncccc1-c1ccc2nccc(C(=O)NCC(=O)N3CSC[C@H]3C#N)c2c1 [Example 128, (R)—N-(2-(4-Cyanothiazolidin-3-yl)-2-oxoethyl)-6-(2-methylpyridin-3-yl)-quinoline-4-carboxamide]	11		110	960 (≈ 401 µg/mL)	27	0.24	0.00066	5400000	0.15			0.57	26	45	0.45
Cc1ccc(-c2ccc3nccc(C(=O)NCC(=O)N4CSC[C@H]4C#N)c3c2)cn1 [Example 177, (R)—N-(2-(4-Cyanothiazolidin-3-yl)-2-oxoethyl)-6-(6-methylpyridin-3-yl)-quinoline-4-carboxamide]	7.4		360	40 (≈ 16.7 µg/mL)	13	0.11	0.000058	100000	0.56			1.3	22	17	0.29
Cc1nc(C)c(-c2ccc3nccc(C(=O)NCC(=O)N4CSC[C@H]4C#N)c3c2)o1 [Example 215, (R)—N-(2-(4-Cyanothiazolidin-3-yl)-2-oxoethyl)-6-(2,4-dimethyloxazol-5-yl)quinoline-4-carboxamide]	3.9		250	350 (≈ 148 µg/mL)	8	0.12	0.00017	1800000	0.095			0.48	29	59	0.41
Cc1noc(C)c1-c1ccc2nccc(C(=O)NCC(=O)N3CSC[C@H]3C#N)c2c1 [Example 216, (R)—N-(2-(4-Cyanothiazolidin-3-yl)-2-oxoethyl)-6-(3,5-dimethylisoxazol-4-yl)quinoline-4-carboxamide]	17		190	710 (≈ 299 µg/mL)	58	1.7	0.0009	5200000	0.27			0.62	40	65	2.4

Continued, values first:

rHep CLint [1] [μL/min/1E6]	Papp [2] [×10⁻⁶ cm/s]	IC50 [3] [nM]	solubility [4] [µM]	microsomal CLint [5] [µL/min/mg]	IC50 [6] [nM]	hFAP Binding assay k(off) [7] [s⁻¹]	hFAP Binding assay k(on) [7] [M⁻¹ s⁻¹]	Kd [7] [nM]	IC50 ([8]; hFAP 0.24 nM) [nM]	IC50 [9] [nM]	Papp A→B [2] [×10⁻⁶ cm/s]	Papp B→A [2] [×10⁻⁶ cm/s]	efflux ratio [2]	IC50 ([8]; hFAP […]) [nM]	Compound
12	16	640	620	30	0.16	0.000064	680000	0.093	0.33						CO[C@H]1CCCN(c2ccc3nccc(C(=O)NCC(=O)N4CSC[C@H]4C#N)c3c2)C1 (mixture of isomers) [Example 41, N-(2-((R)-4-Cyanothiazolidin-3-yl)-2-oxoethyl)-6-((RS)-3-methoxypiperidin-1-yl)quinoline-4-carboxamide]
44		220	85 (≈ 37.2 µg/mL)	92	0.27	0.000052	1100000	0.059			7.5	19	2.5	0.34	CC1(C)CCN(c2ccc3nccc(C(=O)NCC(=O)N4CSC[C@H]4C#N)c3c2)CC1 [Example 33, (R)—N-(2-(4-Cyanothiazolidin-3-yl)-2-oxoethyl)-6-(4,4-dimethylpiperidin-1-yl)quinoline-4-carboxamide]
5.3		1900	6 (≈ 2.61 µg/mL)	15	0.42	0.000066	88000	0.75						0.72	CC(C)n1nccc1-c1ccc2nccc(C(=O)NCC(=O)N3CSC[C@H]3C#N)c2c1 [Example 197, (R)—N-(2-(4-Cyanothiazolidin-3-yl)-2-oxoethyl)-6-(1-isopropyl-1H-pyrazol-5-yl)quinoline-4-carboxamide]
130		330	26 (≈ 10.6 µg/mL)	46	0.065			0.033						0.22	N#C[C@@H]1CSCN1C(=O)CNC(=O)c1ccnc2ccc(N3CC4CC4C3)cc12 (stereo partly drawn) [Example 206, 6-(3-Azabicyclo[3.1.0]hexan-3-yl)-N-(2-((R)-4-cyanothiazolidin-3-yl)-2-oxoethyl)quinoline-4-carboxamide]
12		210	1.6 (≈ 0.761 µg/mL)	72	0.11	0.00026	5600000	0.046						0.22	N#C[C@@H]1CSCN1C(=O)CNC(=O)c1ccnc2ccc(N3C[C@@H]4[C@H](C3)[C@H]4C(F)(F)F)cc12 [Example 208, N-(2-((R)-4-Cyanothiazolidin-3-yl)-2-oxoethyl)-6-((1R,5S,6R)-6-(trifluoromethyl)-3-azabicyclo[3.1.0]hexan-3-yl)quinoline-4-carboxamide]
190		110	110 (≈ 45 µg/mL)	200	0.1	0.0002	5900000	0.049						0.2	C[C@@H]1CCCN1c1ccc2nccc(C(=O)NCC(=O)N3CSC[C@H]3C#N)c2c1 [Example 211, N-(2-((R)-4-cyanothiazolidin-3-yl)-2-oxoethyl)-6-((R)-2-methylpyrrolidin-1-yl)quinoline-4-carboxamide]
57		330	16 (≈ 7.03 µg/mL)	110	0.26	0.00034	3300000	0.1						0.29	COC[C@@H]1CCCN1c1ccc2nccc(C(=O)NCC(=O)N3CSC[C@H]3C#N)c2c1 [Example 212, N-(2-((R)-4-Cyanothiazolidin-3-yl)-2-oxoethyl)-6-((S)-2-(methoxymethyl)-pyrrolidin-1-yl)quinoline-4-carboxamide]
19		470	100 (≈ 43.1 µg/mL)	31	0.039	0.00017	4400000	0.039						0.18	N#C[C@@H]1CSCN1C(=O)CNC(=O)c1ccnc2ccc(N3C[C@H](F)[C@@H](F)C3)cc12 [Example 213, N-(2-((R)-4-Cyanothiazolidin-3-yl)-2-oxoethyl)-6-((3S,4S)-3,4-difluoro-pyrrolidin-1-yl)quinoline-4-carboxamide]
